# Results taken from US20180071298A1, “METHODS FOR TREATING ALZHEIMER'S DISEASE” (Reviva Pharmaceuticals, Inc., priority 2015, published 2018).
# Columns and labels:
# [1] = target: Human Cortex or Human recombinant 5-HT2A (Homo sapiens, UniProt P28223); test: Serotonin 5HT2A radioligand binding assay; conditions: [3H]-Ketanserin
# [2] = target: T1, Human recombinant 5-HT1A (Homo sapiens, UniProt P08908); test: Serotonin 5HT1A radioligand binding assay; conditions: [3H]-8-OH-DPAT
# T1 construct: expressed in transfected cells
# T1 sequence (P08908 1-422): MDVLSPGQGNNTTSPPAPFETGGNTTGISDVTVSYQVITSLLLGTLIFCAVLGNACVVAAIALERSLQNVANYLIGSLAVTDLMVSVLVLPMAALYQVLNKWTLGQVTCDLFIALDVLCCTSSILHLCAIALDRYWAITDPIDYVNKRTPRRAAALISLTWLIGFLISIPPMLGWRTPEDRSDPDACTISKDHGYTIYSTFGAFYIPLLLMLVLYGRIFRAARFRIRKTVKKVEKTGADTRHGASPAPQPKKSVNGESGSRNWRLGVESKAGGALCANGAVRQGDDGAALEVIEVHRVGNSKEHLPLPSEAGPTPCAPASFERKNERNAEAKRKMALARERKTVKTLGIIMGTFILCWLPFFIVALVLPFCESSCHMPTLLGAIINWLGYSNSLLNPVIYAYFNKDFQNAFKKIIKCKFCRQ
# From the text: Serotonin, 5HT1A Radioligand Binding Assay
# Receptor Source: Human recombinant 5-HT1A expressed mammalian cells
# Radioligand: [^3H]-8-OH-DPAT (221 Ci/mmol)
# Control Compound: 8-OH-DPAT
# Sequence of Human Cortex or Human recombinant 5-HT2A (P28223 whole entry): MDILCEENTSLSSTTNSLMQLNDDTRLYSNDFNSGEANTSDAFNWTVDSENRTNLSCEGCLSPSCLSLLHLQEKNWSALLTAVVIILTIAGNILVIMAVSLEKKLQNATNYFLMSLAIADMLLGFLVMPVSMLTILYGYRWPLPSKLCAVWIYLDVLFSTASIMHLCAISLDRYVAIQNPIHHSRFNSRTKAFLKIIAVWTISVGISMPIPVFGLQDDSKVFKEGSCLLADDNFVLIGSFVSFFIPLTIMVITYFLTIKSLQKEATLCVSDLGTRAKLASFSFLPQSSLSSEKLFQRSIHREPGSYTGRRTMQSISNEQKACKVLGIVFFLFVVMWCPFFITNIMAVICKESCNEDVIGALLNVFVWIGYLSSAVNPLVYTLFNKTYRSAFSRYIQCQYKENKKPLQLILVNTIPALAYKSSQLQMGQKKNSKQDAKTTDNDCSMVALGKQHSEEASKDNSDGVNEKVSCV
compound,measurement,setting,value
"O=C1COc2ccc(OCCCCN3CCN(c4cccc(Cl)c4Cl)CC3)cc2N1 [Compound A, 6-(4-(4-(2,3-dichlorophenyl)piperazin-1-yl)butoxy)-2H-benzo[b][1,4]oxazin-3(-4H)-one]","Ki, Serotonin 5-HT2A",[1],111 nM
same,Ki,[2],0.65 nM
